Assay results from US20180153995A1, “USE OF ANTIMICROBIAL POLYMERS FOR RE-SENSITIZATION OF MICROORGANISMS UPON EMERGENCE OF RESISTANCE TO ANTI-MICROBIAL AGENTS” (Technion Research & Development Foundation Limited, priority 2008, published 2018).
Like-named read-outs stand apart in the source and are kept apart here.

Assays:
E. coli D21 = assay: Antibiotic MIC with or without sub-MIC polymer (Tables 20, 21); type: cell-based, Escherichia coli
E. coli 14384 = assay: Antibiotic MIC by microdilution with or without sub-MIC polymer; type: cell-based, Escherichia coli
Method: (§1) MICs were determined by microdilution susceptibility testing in 96-well plates (by Nunc) using inocula of 10^5 bacteria per ml. Cell populations were evaluated by optical density measurements at 620 nm and were calibrated against a set of standards. Hundred (100) μl of a bacterial suspension were added to 100 μl of culture medium (control) or to 100 μl of culture medium containing various polymer concentrations in 2-fold serial dilutions. Inhibition of proliferation was determined by optical density measurements at 620 nm after an incubation period of 24 hours at 37° C.
(§2) 100 μl of a bacterial suspension were added to 100 μl of culture medium (control) or to 100 μl of culture medium containing various antibiotic and C14(9-ene)KKNC12KNH2 (SEQ ID NO: 5) concentrations in 2-fold serial dilutions. Inhibition of proliferation was determined by optical density measurements at 620 nm after an incubation period of 24 hours at 37° C.

E. coli AG100/ks = assay: Antibiotic MIC with or without sub-MIC polymer (Tables 20, 21); type: cell-based, Escherichia coli
E. coli G11a1 = assay: as above; type: cell-based, Escherichia coli
Method: as §1

S. aureus 15877 = assay: Antibiotic MIC by microdilution with or without sub-MIC polymer; type: cell-based, Staphylococcus aureus
Method: MICs were determined by microdilution susceptibility testing in 96-well plates (Nunc) using inocula of 10^5 bacteria per ml. One hundred (100) μl of a bacterial suspension were added to 100 μl of culture medium (control) or to 100 μl of culture medium containing various antibiotic and C12(5-ene)KKNC12KNH2 (SEQ ID NO: 2) concentrations in 2-fold serial dilutions. Inhibition of proliferation was determined by optical density measurements at 620 nm after an incubation period of 24 hours at 37° C.

MRSA 15852 = type: cell-based, Staphylococcus aureus; conditions: S. aureus 15852
How it was run: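 Checkerboard combination testing against MRSA 15852; FIC index = A/MICA + B/MICB, with A and B the MICs of each agent in combination and MICA, MICB the MICs alone. Index <0.5 read as clear re-sensitizing, 0.5–4 as marginal or null, >4 as antagonism.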

[1] = system: E. coli K-12 resistant wild type; type: cell-based, Escherichia coli; conditions: E. coli AG100 (w.t.)
P. mirabilis 1285 [2] = type: cell-based, Proteus mirabilis; conditions: no polymer (None), Table 12
Method: as §1, §2

P. aeruginosa 8732 = assay: Antibiotic MIC by microdilution with or without sub-MIC polymer; type: cell-based, Pseudomonas aeruginosa
Method: as §1
Inhibition of proliferation was determined by optical density measurements at 620 nm after an incubation period of 24 hours at 37° C.

P. mirabilis 1285 [3] = type: cell-based, Proteus mirabilis
E. coli 16329 = type: cell-based, Escherichia coli
Method: as §1, §2

E. coli AG100 = assay: Antibiotic MIC with or without sub-MIC polymer (Tables 20, 21); type: cell-based, Escherichia coli
[4] = +¼ MIC (1.6 μM) C12(5-ene)KKNC12KNH2
[5] = +½ MIC (3.12 μM) C12(5-ene)KKNC12KNH2
[6] = +⅓ MIC (2.1 μM) C12(5-ene)KKNC12KNH2

## CC1(C)S[C@@H]2[C@H](NC(=O)Cc3ccccc3)C(=O)N2[C@H]1C(=O)O [Penicillin G, penicillin G]
E. coli D21; antibiotic alone (Table 20)
  Antibiotic MIC, None: 512 µg/mL
E. coli D21; antibiotic alone (Table 21)
  Antibiotic MIC, None: 512 µg/mL
E. coli D21; polymer at ¼ of its MIC
  Antibiotic MIC in presence of C12K(NC8K)5NH2 (SEQ ID NO: 3), +¼ MIC: 512 µg/mL
  Antibiotic MIC in presence of C12K(NC8K)7NH2 (SEQ ID NO: 4), +¼ MIC: 512 µg/mL
E. coli D21; polymer at ½ of its MIC
  Antibiotic MIC in presence of C12K(NC8K)5NH2 (SEQ ID NO: 3), +½ MIC: 256 µg/mL
  Antibiotic MIC in presence of C12K(NC8K)7NH2 (SEQ ID NO: 4), +½ MIC: 256 µg/mL
E. coli D21; polymer at ⅓ of its MIC
  Antibiotic MIC in presence of C12K(NC8K)5NH2 (SEQ ID NO: 3), +⅓ MIC: 256 to 512 µg/mL
  Antibiotic MIC in presence of C12K(NC8K)7NH2 (SEQ ID NO: 4), +⅓ MIC: 512 µg/mL
E. coli 14384
  Antibiotic MIC: 512 µg/mL
E. coli 14384; E. coli 14384, +½ MIC C12K(NC8K)5NH2
  Antibiotic MIC: >512 µg/mL
E. coli 14384; E. coli 14384, antibiotic alone (Table 15)
  Antibiotic MIC, None: >512 µg/mL
E. coli 14384; E. coli 14384, no polymer (None), Table 9
  Antibiotic MIC: 512 µg/mL
E. coli 14384; E. coli 14384, no polymer (None), Table 14
  Antibiotic MIC: >512 µg/mL
E. coli 14384; E. coli 14384, polymer at ¼ of its MIC
  Antibiotic MIC in presence of C12K(NC8K)7NH2 (SEQ ID NO: 4), +¼ MIC: >512 µg/mL
E. coli 14384; E. coli 14384, polymer at ½ of its MIC
  Antibiotic MIC in presence of C12K(NC8K)7NH2 (SEQ ID NO: 4), +½ MIC: >512 µg/mL
E. coli 14384; E. coli 14384, polymer at ⅓ of its MIC
  Antibiotic MIC in presence of C12K(NC8K)7NH2 (SEQ ID NO: 4), +⅓ MIC: >512 µg/mL
E. coli AG100/ks; antibiotic alone (Table 20)
  Antibiotic MIC, None: >512 µg/mL
E. coli AG100/ks; antibiotic alone (Table 21)
  Antibiotic MIC, None: >512 µg/mL
E. coli AG100/ks; polymer at ¼ of its MIC
  Antibiotic MIC in presence of C12K(NC8K)5NH2 (SEQ ID NO: 3), +¼ MIC: >512 µg/mL
E. coli AG100/ks; polymer at ½ of its MIC
  Antibiotic MIC in presence of C12K(NC8K)5NH2 (SEQ ID NO: 3), +½ MIC: >512 µg/mL
E. coli AG100/ks; polymer at ⅓ of its MIC
  Antibiotic MIC in presence of C12K(NC8K)5NH2 (SEQ ID NO: 3), +⅓ MIC: >512 µg/mL
E. coli G11a1; antibiotic alone (Table 20)
  Antibiotic MIC, None: 512 µg/mL
E. coli G11a1; antibiotic alone (Table 21)
  Antibiotic MIC, None: 512 µg/mL
S. aureus 15877; [4]
  Antibiotic MIC: 8 µg/mL
S. aureus 15877; [5]
  Antibiotic MIC: 8 µg/mL
S. aureus 15877; [6]
  Antibiotic MIC: 8 µg/mL
S. aureus 15877; no polymer (None), Table 8
  Antibiotic MIC: 8 µg/mL
MRSA 15852; [4]
  Antibiotic MIC: 32 µg/mL
MRSA 15852; +¼ MIC (1.6 μM) C12KKNC12KNH2
  Antibiotic MIC: 64 µg/mL
MRSA 15852; [5]
  Antibiotic MIC: 32 µg/mL
MRSA 15852; +½ MIC (3.12 μM) C12KKNC12KNH2
  Antibiotic MIC: 64 µg/mL
MRSA 15852; [6]
  Antibiotic MIC: 32 µg/mL
MRSA 15852; +⅓ MIC (2.1 μM) C12KKNC12KNH2
  Antibiotic MIC: 64 µg/mL
MRSA 15852; no polymer (None), Table 8
  Antibiotic MIC: 32 µg/mL
MRSA 15852; no polymer (None), Table 11
  Antibiotic MIC: 64 µg/mL
[1]; antibiotic alone (Table 16)
  Antibiotic MIC, None: 32 µg/mL
[1]; antibiotic alone (Table 17)
  Antibiotic MIC, None: 32 µg/mL
[1]; polymer at ¼ of its MIC (Table 16)
  Antibiotic MIC in presence of C12K(NC8K)7NH2 (SEQ ID NO: 4), +¼ MIC: 16 to 32 µg/mL
[1]; polymer at ½ of its MIC (Table 16)
  Antibiotic MIC in presence of C12K(NC8K)7NH2 (SEQ ID NO: 4), +½ MIC: 8 µg/mL
[1]; polymer at ⅓ of its MIC (Table 16)
  Antibiotic MIC in presence of C12K(NC8K)7NH2 (SEQ ID NO: 4), +⅓ MIC: 8 to 16 µg/mL
[1]; the OAK at ¼ of its MIC (Table 17)
  Antibiotic MIC in presence of the OAK, +¼ MIC: 16 µg/mL
[1]; the OAK at ½ of its MIC (Table 17)
  Antibiotic MIC in presence of the OAK, +½ MIC: 8 µg/mL
[1]; the OAK at ⅓ of its MIC (Table 17)
  Antibiotic MIC in presence of the OAK, +⅓ MIC: 16 µg/mL
P. mirabilis 1285 [2]
  Antibiotic MIC: 512 µg/mL
P. aeruginosa 8732
  Antibiotic MIC: 512 µg/mL
P. aeruginosa 8732; P. aeruginosa 8732, +½ MIC (3.12 μM) C16(9-ene)KKNC12KNH2
  Antibiotic MIC: 512 µg/mL
P. aeruginosa 8732; P. aeruginosa 8732, +⅓ MIC (2.1 μM) C16(9-ene)KKNC12KNH2
  Antibiotic MIC: 512 µg/mL
P. aeruginosa 8732; P. aeruginosa 8732, no polymer (None), Table 10
  Antibiotic MIC: 512 µg/mL
P. mirabilis 1285 [3]; +¼ MIC (1.6 μM) C12K(KNC12K)2NH2
  Antibiotic MIC: 512 µg/mL
P. mirabilis 1285 [3]; +½ MIC (3.12 μM) C12K(KNC12K)2NH2
  Antibiotic MIC: 512 µg/mL
P. mirabilis 1285 [3]; +⅓ MIC (2.1 μM) C12K(KNC12K)2NH2
  Antibiotic MIC: 512 µg/mL
E. coli 16329
  Antibiotic MIC: 256 µg/mL
E. coli 16329; E. coli 16329, no polymer (None), Table 10
  Antibiotic MIC: 512 µg/mL
E. coli 16329; E. coli U-16329, +¼ MIC C12K(NC8K)5NH2
  Antibiotic MIC: 256 µg/mL
E. coli 16329; E. coli U-16329, +½ MIC C12K(NC8K)5NH2
  Antibiotic MIC: 256 µg/mL
E. coli 16329; E. coli U-16329, +⅓ MIC C12K(NC8K)5NH2
  Antibiotic MIC: 256 µg/mL
E. coli 16329; E. coli U-16329, antibiotic alone (Table 15)
  Antibiotic MIC, None: 256 µg/mL
E. coli 16329; E. coli U-16329, no polymer (None), Table 14
  Antibiotic MIC: 256 µg/mL
E. coli 16329; E. coli U-16329, polymer at ¼ of its MIC
  Antibiotic MIC in presence of C12K(NC8K)7NH2 (SEQ ID NO: 4), +¼ MIC: 256 µg/mL
E. coli 16329; E. coli U-16329, polymer at ½ of its MIC
  Antibiotic MIC in presence of C12K(NC8K)7NH2 (SEQ ID NO: 4), +½ MIC: 128 to 256 µg/mL
E. coli 16329; E. coli U-16329, polymer at ⅓ of its MIC
  Antibiotic MIC in presence of C12K(NC8K)7NH2 (SEQ ID NO: 4), +⅓ MIC: 128 to 256 µg/mL
E. coli AG100; antibiotic alone (Table 20)
  Antibiotic MIC, None: 32 µg/mL
E. coli AG100; antibiotic alone (Table 21)
  Antibiotic MIC, None: 32 µg/mL
E. coli AG100; polymer at ¼ of its MIC
  Antibiotic MIC in presence of C12K(NC8K)5NH2 (SEQ ID NO: 3), +¼ MIC: 16 µg/mL
  Antibiotic MIC in presence of C12K(NC8K)7NH2 (SEQ ID NO: 4), +¼ MIC: 16 to 32 µg/mL
E. coli AG100; polymer at ½ of its MIC
  Antibiotic MIC in presence of C12K(NC8K)5NH2 (SEQ ID NO: 3), +½ MIC: 8 µg/mL
  Antibiotic MIC in presence of C12K(NC8K)7NH2 (SEQ ID NO: 4), +½ MIC: 8 µg/mL
E. coli AG100; polymer at ⅓ of its MIC
  Antibiotic MIC in presence of C12K(NC8K)5NH2 (SEQ ID NO: 3), +⅓ MIC: 16 µg/mL
  Antibiotic MIC in presence of C12K(NC8K)7NH2 (SEQ ID NO: 4), +⅓ MIC: 8 to 16 µg/mL
